Consider eleven molecules from ChEMBL document CHEMBL1201862, “PubChem BioAssay data set” (2004).

Some test systems named below: CAKI-1; EKVX; HCT-116; HOP-62; HT-29; IGROV-1; Malme-3M; NCI-H226; NCI-H522; OVCAR-3; OVCAR-5; RPMI-8226; SF-295; SF-539; SK-MEL-2; SK-MEL-5; SN12C; SW-620; TK-10; NCI-H460.
Holding throughout (assay): inhibition of tumour cell growth, NCI panel, 48 h

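Five concentrations, 48 hours, 96-well plates. Here, GI50 denotes the concentration required for 50% inhibition of growth.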 Calls of active or inactive are those of the source. Rule as the data show it: active = GI50 up to about 1.1 µM and inactive = higher.

`N#CC1=C(N)N(c2ccccc2)C(c2ccco2)C1(C#N)C#N` (stereo unspecified): the GI50 is 30.6 µM (inactive) in the assay on CAKI-1; 20 µM (inactive) in the assay with EKVX; 28.5 µM (inactive) in the assay on HCT-116; 21.8 µM (inactive) in the assay on HOP-62; 20 µM (inactive) in the assay with HT-29; 19.2 µM (inactive) with IGROV-1. Moreover, the GI50 in the assay on Malme-3M is 22.9 µM (inactive); in the assay on NCI-H226, 18 µM (inactive); in the assay with NCI-H522, 16.7 µM (inactive); in the assay with OVCAR-3, 19 µM (inactive); with OVCAR-5, 22.9 µM (inactive); in the assay on RPMI-8226, 19.4 µM (inactive). Also, the GI50 is 28.4 µM (inactive) in the assay with SF-295; 19.3 µM (inactive) in the assay with SF-539; 27.5 µM (inactive) with SK-MEL-2; 17.4 µM (inactive) in the assay with SK-MEL-5; 30.3 µM (inactive) in the assay with SN12C; 17.9 µM (inactive) with SW-620. Moreover, the GI50 in the assay on TK-10 is 16.4 µM (inactive).

Take `O=C(NO)c1coc2ccccc2c1=O`: the GI50 was 8.26 µM (inactive) in the assay on CAKI-1; > 100 µM (inactive) in the assay with EKVX; > 100 µM (inactive) with HT-29; > 100 µM (inactive) in the assay on IGROV-1; 88.9 µM (inactive) with Malme-3M; > 100 µM (inactive) with NCI-H522. The GI50 in the assay on OVCAR-5 was > 100 µM (inactive); in the assay on RPMI-8226, > 100 µM (inactive); in the assay with SF-295, > 100 µM (inactive); in the assay on SF-539 it was 78.5 µM (inactive); with SK-MEL-2 it was 74.3 µM (inactive); in the assay on SK-MEL-5, > 100 µM (inactive). Further, the figures for the GI50 with SN12C, with SW-620 and in the assay on TK-10 were > 100 µM (inactive), > 100 µM (inactive) and 35.7 µM (inactive), respectively.

Regarding `COc1ccc(-c2nnc(-c3ccncc3)o2)cc1`, the GI50 with CAKI-1, with EKVX, in the assay on HCT-116, in the assay with HOP-62, with HT-29 and in the assay with IGROV-1 was > 100 µM (inactive) in each case. Besides, the GI50 in the assay on Malme-3M, in the assay on NCI-H226, in the assay with NCI-H522, with OVCAR-3, with OVCAR-5 and in the assay with RPMI-8226 was > 100 µM (inactive) throughout. Also, the GI50 in the assay on SF-295, with SF-539, in the assay with SK-MEL-2, with SK-MEL-5, with SN12C and in the assay on TK-10 was > 100 µM (inactive) throughout.

On to `COc1cc2c(cc1Oc1ccc(OC)c3c1CC1c4c(cc(OC)c(OC)c4-3)CCN1C)CC1c3c(cc(OC)c(OC)c3-2)CCN1C` (stereo unspecified), for which the GI50 is 2.1 µM (inactive) with CAKI-1; 3.18 µM (inactive) in the assay with EKVX; 1.77 µM (inactive) in the assay on HCT-116; 17.1 µM (inactive) with HOP-62; 0.35 µM (active) with HT-29; 3.86 µM (inactive) in the assay with IGROV-1. Further, the GI50 in the assay on Malme-3M is 1.85 µM (inactive); with NCI-H226 it was 1.53 µM (inactive); in the assay with NCI-H460, 1.7 µM (inactive); in the assay with NCI-H522 it was 2.09 µM (inactive); in the assay on OVCAR-3 it was 4.95 µM (inactive); with OVCAR-5, 6.05 µM (inactive). The GI50 in the assay on RPMI-8226 was 0.221 µM (active); in the assay on SF-295, 2.54 µM (inactive); in the assay on SF-539, 1.72 µM (inactive); in the assay with SK-MEL-2, 1.74 µM (inactive); in the assay on SK-MEL-5 it was 1.64 µM (inactive); in the assay with SN12C, 6.59 µM (inactive). In addition, the GI50 with SW-620 was 1.95 µM (inactive).

As for `CC(=O)ON1C(=O)c2cccc3cccc(c23)C1=O`, the GI50 in the assay on CAKI-1 was 17.9 µM (inactive); in the assay on EKVX, 28.1 µM (inactive); with HCT-116, 6.93 µM (inactive); in the assay on HOP-62 it was 22.8 µM (inactive); with HT-29, 27.2 µM (inactive); with IGROV-1, 7.28 µM (inactive). The GI50 with Malme-3M is 20 µM (inactive); in the assay on NCI-H460, 7.93 µM (inactive); in the assay with NCI-H522, 14.6 µM (inactive); with OVCAR-3, 19.5 µM (inactive); in the assay with OVCAR-5, 35.1 µM (inactive); in the assay with RPMI-8226, 12.7 µM (inactive). The GI50 is 20.9 µM (inactive) with SF-295; 16.4 µM (inactive) in the assay on SF-539; 18.3 µM (inactive) with SK-MEL-2; 13.2 µM (inactive) in the assay on SK-MEL-5; 5.62 µM (inactive) with SW-620; 31.7 µM (inactive) with TK-10.

Take `COc1cc([N+](=O)[O-])ccc1NC(=O)c1cccc([N+](=O)[O-])c1O`: the GI50 in the assay with CAKI-1 is 17 µM (inactive); in the assay with EKVX, 29.1 µM (inactive); in the assay with HCT-116 it was 26.4 µM (inactive); with HOP-62 it was 36.6 µM (inactive); in the assay on HT-29 it was 25.5 µM (inactive); in the assay with IGROV-1, 14.1 µM (inactive). Further, the GI50 was 7.67 µM (inactive) in the assay with Malme-3M; 38.7 µM (inactive) with NCI-H226; 27.7 µM (inactive) with NCI-H460; 11.6 µM (inactive) in the assay with NCI-H522; 29.4 µM (inactive) with OVCAR-3; 41.3 µM (inactive) in the assay on OVCAR-5. The GI50 with RPMI-8226 was 10.3 µM (inactive); in the assay with SF-295, 23.4 µM (inactive); with SF-539, 23.1 µM (inactive); with SK-MEL-2, 17.5 µM (inactive); in the assay on SK-MEL-5 it was 6.46 µM (inactive); in the assay with SN12C it was 14.7 µM (inactive). Further, the GI50 with SW-620 is 30.8 µM (inactive).

`COc1ccc(C2ON(c3ccccn3)CC=C2C)cc1` (stereo unspecified): the GI50 in the assay with CAKI-1, with EKVX, in the assay on HOP-62, in the assay with HT-29, with IGROV-1 and with Malme-3M was > 100 µM (inactive) throughout. In addition, the GI50 in the assay with NCI-H226 was > 100 µM (inactive); with NCI-H460, > 100 µM (inactive); with NCI-H522 it was 47.4 µM (inactive); with OVCAR-3 it was > 100 µM (inactive); in the assay on OVCAR-5, 36.5 µM (inactive); in the assay on RPMI-8226 it was 60.1 µM (inactive). Also, the GI50 in the assay with SF-295, with SF-539, in the assay with SK-MEL-2, with SK-MEL-5, with SN12C and in the assay with SW-620 was > 100 µM (inactive) in each case.

For the molecule `O=C1c2ccccc2N1C(=O)c1ccccc1[N+](=O)[O-]`, the GI50 with CAKI-1 is 92 µM (inactive); in the assay with EKVX it was > 100 µM (inactive); in the assay with HCT-116, 36.1 µM (inactive); in the assay with HOP-62, 45.4 µM (inactive); in the assay on HT-29, 88.1 µM (inactive); in the assay with IGROV-1, > 100 µM (inactive). In addition, the GI50 with Malme-3M was 29.6 µM (inactive); in the assay on NCI-H226, 12.3 µM (inactive); with NCI-H460, > 100 µM (inactive); with NCI-H522, 91.2 µM (inactive); in the assay on OVCAR-3 it was 18.6 µM (inactive); with OVCAR-5, > 100 µM (inactive). The GI50 is 64.4 µM (inactive) with RPMI-8226; 32.2 µM (inactive) with SF-539; 90.8 µM (inactive) in the assay with SK-MEL-2; 51.8 µM (inactive) in the assay on SK-MEL-5; > 100 µM (inactive) with SW-620; > 100 µM (inactive) in the assay on TK-10.

Regarding `Cc1ccccc1-c1nc2c(C(=O)NCCN(C)C)cccc2[nH]1`, the GI50 is 47.6 µM (inactive) in the assay with CAKI-1; > 100 µM (inactive) in the assay with EKVX; 29.6 µM (inactive) with HCT-116; 31.5 µM (inactive) in the assay with HOP-62; 31.8 µM (inactive) in the assay with HT-29; 58.5 µM (inactive) in the assay with IGROV-1. Besides, the GI50 with Malme-3M was 30.5 µM (inactive); in the assay on NCI-H226 it was 16 µM (inactive); in the assay with NCI-H460, 30.2 µM (inactive); in the assay on NCI-H522 it was 59.3 µM (inactive); in the assay on OVCAR-3 it was 65.6 µM (inactive); in the assay on OVCAR-5 it was 40.2 µM (inactive). Besides, the GI50 is 27.7 µM (inactive) in the assay with RPMI-8226; 34.1 µM (inactive) with SF-295; 41.4 µM (inactive) in the assay on SF-539; > 85.3 µM (inactive) in the assay on SK-MEL-2; 21.7 µM (inactive) in the assay on SK-MEL-5; 40.4 µM (inactive) in the assay on SN12C. Also, the GI50 in the assay on SW-620 was 26.5 µM (inactive).

Take `CCN(/N=C1\CC2C=CCN(C2)C(=O)Cc2c1[nH]c1ccccc21)S(=O)(=O)c1ccc(C)cc1` (stereo unspecified): the GI50 with CAKI-1 was 25.4 µM (inactive); with EKVX, 40.3 µM (inactive); in the assay with HCT-116, 85.9 µM (inactive); in the assay with IGROV-1, 68.4 µM (inactive); in the assay on Malme-3M, > 100 µM (inactive); in the assay on NCI-H226 it was 14.6 µM (inactive). In addition, the GI50 with NCI-H522 was 36.7 µM (inactive); in the assay on RPMI-8226, 63.1 µM (inactive); with SF-295, 71.1 µM (inactive); in the assay on SF-539, > 100 µM (inactive); in the assay on SK-MEL-2 it was 88.1 µM (inactive); in the assay on SK-MEL-5 it was 56.6 µM (inactive). Further, the GI50 in the assay with SN12C is 86.7 µM (inactive); with SW-620, 78 µM (inactive); with TK-10, > 100 µM (inactive).

For `Cc1ccc(NC(=O)c2cccc([N+](=O)[O-])c2O)c(C)c1`, the GI50 with CAKI-1 was 6.97 µM (inactive); with EKVX it was 17.1 µM (inactive); in the assay with HCT-116 it was 28.6 µM (inactive); in the assay with HOP-62, 33.3 µM (inactive); in the assay with HT-29, 29.4 µM (inactive); in the assay with IGROV-1, 9.84 µM (inactive). Moreover, the GI50 is 1.7 µM (inactive) in the assay with Malme-3M; 17.1 µM (inactive) in the assay on NCI-H226; 26.4 µM (inactive) with NCI-H460; 7.06 µM (inactive) in the assay on NCI-H522; 5.7 µM (inactive) in the assay with OVCAR-3; 20.5 µM (inactive) in the assay on OVCAR-5. In addition, the GI50 in the assay on RPMI-8226 was 11.6 µM (inactive); in the assay on SF-295 it was 20.1 µM (inactive); in the assay with SF-539 it was 14.5 µM (inactive); in the assay on SK-MEL-2 it was 7.73 µM (inactive); in the assay on SN12C, 15.8 µM (inactive); in the assay with SW-620 it was 28.4 µM (inactive).
